{
  "source": "patent US20240358020A1",
  "about": "“FORMAMIDE DERIVATIVE AND AGRICULTURAL OR HORTICULTURAL PLANT DISEASE CONTROL AGENT” (Kumiai Chemical Industry Co., Ltd., priority 2021, published 2024)",
  "format_in_all_cases": "in vivo",
  "key": {"[1]": {"test_system": "Soybean Rust (Phakopsora pachyrhizi)", "test": "Soybean rust control effect test", "settings": "sprayed on soybean seedlings at 100 g a.i./ha, then spray-inoculated; disease severity of first leaf examined after 12 to 14 days", "from_the_text": "[Test Example 1] Soybean Rust (Phakopsora pachyrhizi) Control Effect Test\nSoybean seeds were sown in a pot and sprayed on the grown seedlings so that the amount of the active ingredient was 100 g a.i./ha. Thereafter, a soybean rust fungus was spray-inoculated, the pot was transferred to a wet room and was kept under dark conditions, and invasion of pathogens was promoted. Thereafter, the pot was managed in a greenhouse, after 12 to 14 days, a degree of disease severity for each first leaf was examined according to the criteria in Table 226 to determine a degree of disease severity by a calculation formula of Equation 1, and a control value was determined by a calculation formula of Equation 2.\n(§1) [in the formula, N represents the total number of examined leaves, n0 represents the number of leaves having a disease severity index of 0, n1 represents the number of leaves having a disease severity index of 1, n2 represents the number of leaves having a disease severity index of 2, n3 represents the number of leaves having a disease severity index of 3, and n4 represents the number of leaves having a disease severity index of 4.]"}, "[2]": {"test_system": "Wheat rust (Puccinia recondita)", "test": "Wheat rust control effect test", "settings": "chemical solution 50 ppm active ingredient sprayed on wheat seedlings, then spray-inoculated; first leaf examined after 9 days", "from_the_text": "as §1\n[Test Example 2] Wheat rust (Puccinia recondita) control effect test Wheat seeds were sown in a pot, and a chemical solution was sprayed on the grown seedlings so that the concentration of the active ingredient was 50 ppm. Thereafter, a wheat rust fungus was spray-inoculated, the pot was transferred to a wet room and was kept under dark conditions, and invasion of pathogens was promoted. Thereafter, the pot was managed in a greenhouse, after 9 days, a degree of disease severity for each first leaf was examined according to the criteria in Table 220 to determine a degree of disease severity by a calculation formula of Equation 1, and a control value was determined by a calculation formula of Equation Formula 2."}, "[3]": {"test_system": "Rice Sheath Blight Disease (Rhizoctonia solani)", "test": "Rice sheath blight disease control effect test", "settings": "chemical solution 50 ppm active ingredient sprayed on rice seedlings, then inoculated with bran medium culture; lesion height examined after 5 days", "from_the_text": "as §1\n[Test Example 3] Rice Sheath Blight Disease (Rhizoctonia solani) Control Effect Test\nRice seeds were sown in a pot, and a chemical solution was sprayed on the grown seedlings so that the concentration of the active ingredient was 50 ppm. Thereafter, a bran medium in which a rice sheath blight fungi was cultured was inoculated into the strain, the bran medium was transferred to a wet room, and invasion of pathogens was promoted. Thereafter, the pot was managed in a greenhouse, after 5 days, a lesion height was examined according to the criteria in Table 221 to determine a degree of disease severity by a calculation formula of Equation 1, and a control value was determined by a calculation formula of Equation 2."}},
  "data": [
    {"smiles": "CCC(=O)N(Cc1ccccc1)c1ccc(-c2noc(C(F)(F)F)n2)cc1", "note": "[comparative compound]", "values": [
      {"measurement": "control value", "setting": "[1]", "value": "less than 60"},
      {"measurement": "control value", "setting": "[2]", "value": "≤ 12.5"},
      {"measurement": "control value", "setting": "[3]", "value": "≤ 12.5"}
    ]}
  ]
}
